Reference: patent publication US7232690B1, “Method and device for detecting and isolating pharmacological compounds being contained in substance mixtures” (LTS Lohmann Therapie-Systeme AG, priority 1999, dated 2007)

Target: β2-adrenoreceptor (Homo sapiens, UniProt P07550)
Assay: Ultrafiltration target-binding test of extract of taraxacum with β2-adrenoreceptor membrane preparation (Example 3)
[1] = Sample 351, no receptor, extract 1.5 mg (7.5 g/l)
[2] = Sample 355, receptor 1.04 pmol (5.2 nmol/l), extract 1.5 pmol (7.5 nmol/l)
[3] = Sample 356, receptor 1.04 pmol (5.2 nmol/l), extract 1.5 pmol (7.5 nmol/l)
[4] = Sample 360, no receptor, extract 0.3 mg (1.5 g/l)
[5] = Sample 361, receptor 1.04 pmol (5.2 nmol/l), extract 0.3 mg (1.5 g/l)
[6] = Sample 362, no receptor, extract 0.6 mg (3 g/l)
[7] = Sample 363, receptor 1.04 pmol (5.2 nmol/l), extract 0.6 mg (3 g/l)
[8] = Sample 364, no receptor, extract 1.0 mg (5.0 g/l)
[9] = Sample 365, receptor 1.04 pmol (5.2 nmol/l), extract 1.0 mg (5.0 g/l)
[10] = Sample 366, receptor 1.04 pmol (5.2 nmol/l), extract 1.5 mg (7.5 g/l)
[11] = Sample 367, receptor 1.04 pmol (5.2 nmol/l), extract 1.5 mg (7.5 g/l)
[12] = Sample 369, receptor 1.04 pmol (5.2 nmol/l), extract 1.5 mg (7.5 g/l)
[13] = Sample 373, receptor 1.04 pmol (5.2 nmol/l), extract 1.5 mg (7.5 g/l)
[14] = Sample 374, receptor 0.52 pmol (2.6 nmol/l), extract 1.5 mg (7.5 g/l)
[15] = Sample 375, receptor 0.26 pmol (1.3 nmol/l), extract 1.5 mg (7.5 g/l)

β2-adrenoreceptor, sequence (P07550 whole entry): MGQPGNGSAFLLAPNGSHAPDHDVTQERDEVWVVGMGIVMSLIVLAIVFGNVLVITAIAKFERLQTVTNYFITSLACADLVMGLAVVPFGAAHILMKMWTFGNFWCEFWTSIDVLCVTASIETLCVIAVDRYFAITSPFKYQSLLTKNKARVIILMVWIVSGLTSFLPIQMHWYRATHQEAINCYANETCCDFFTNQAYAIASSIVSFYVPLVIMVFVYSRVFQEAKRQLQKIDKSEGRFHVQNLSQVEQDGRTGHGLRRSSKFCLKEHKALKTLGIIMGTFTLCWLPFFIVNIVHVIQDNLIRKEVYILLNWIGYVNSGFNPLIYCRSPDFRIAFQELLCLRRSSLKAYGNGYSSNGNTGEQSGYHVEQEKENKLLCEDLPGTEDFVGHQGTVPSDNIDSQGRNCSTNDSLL
Method: Substance used for the assays: • a) extr. taraxaci spir. sicc.
In the assays, the extract of taraxacum and the membrane preparation were combined in different stoichiometric ratios, dissolved in 200 μl of binding buffer (150 mM of NaCl, 50 mM of tris, pH 8.2 in water).
The receptor-ligand binding was completed by 30-minute-long incubation of the mixture at 30-34° C. The solutions were then placed on a Microcon 10 centrifugal filter and centrifuged at 9981×g for 15 min or until dryness of the filter. […] After two washing steps with binding buffer, the complexes present on the filter were separated by treatment with 200 μl of TFA (1/49.5/49.5).
The eluates from the following four filtration steps were centrifuged under vacuum until dryness, and the substances obtained were dissolved by means of ultrasound in 10 μl of the mobile phase of the HPLC (cf. Example 1), shortly before LC analysis.

COc1cc(/C=C/C(=O)OC(C(=O)O)C(OC(=O)/C=C/c2ccc(O)c(OC)c2)C(=O)O)ccc1O (stereo not drawn) [Substance L7, trans-diferoyl-tartaric acid ester]
1st Wash [1]: 748.2 nmol/L | 2nd Wash [1]: 145.5 nmol/L | Filtrate [1]: 3802.1 nmol/L | Liberation [1]: 22.7 nmol/L | 1st Wash [2]: 909.9 nmol/L | 2nd Wash [2]: 180.4 nmol/L | Filtrate [2]: 1539.6 nmol/L | Liberation [2]: 214.5 nmol/L | 1st Wash [3]: 1117.4 nmol/L | 2nd Wash [3]: 295.9 nmol/L | Filtrate [3]: 2183.1 nmol/L | Liberation [3]: 510.7 nmol/L | 1st Wash [4]: 129.6 nmol/L | 2nd Wash [4]: 6.6 nmol/L | Filtrate [4]: 1268.8 nmol/L | Liberation [4]: 8.6 nmol/L | 1st Wash [5]: 129.6 nmol/L | 2nd Wash [5]: 6.6 nmol/L | Filtrate [5]: 1268.8 nmol/L | Liberation [5]: 8.6 nmol/L | 1st Wash [6]: 176.5 nmol/L | 2nd Wash [6]: 33.7 nmol/L | Filtrate [6]: 1423.2 nmol/L | Liberation [6]: 7.5 nmol/L | 1st Wash [7]: 76.4 nmol/L | 2nd Wash [7]: 104.2 nmol/L | Filtrate [7]: 1740.7 nmol/L | Liberation [7]: 16.9 nmol/L | 1st Wash [8]: 92.7 nmol/L | 2nd Wash [8]: 30.1 nmol/L | Filtrate [8]: 1829.6 nmol/L | Liberation [8]: 89.6 nmol/L | 1st Wash [9]: 74.0 nmol/L | 2nd Wash [9]: 11.2 nmol/L | Filtrate [9]: 2746.8 nmol/L | Liberation [9]: 111.9 nmol/L | 1st Wash [10]: 1425.3 nmol/L | 2nd Wash [10]: 213.1 nmol/L | Filtrate [10]: 4261.6 nmol/L | Liberation [10]: 168.2 nmol/L | 1st Wash [11]: 1509.0 nmol/L | 2nd Wash [11]: 199.2 nmol/L | Filtrate [11]: 6243.7 nmol/L | Liberation [11]: 232.9 nmol/L | 1st Wash [12]: 986.8 nmol/L | 2nd Wash [12]: 221.7 nmol/L | Filtrate [12]: 3505.8 nmol/L | Liberation [12]: 378.7 nmol/L | 1st Wash [13]: 1176.5 nmol/L | 2nd Wash [13]: 285.4 nmol/L | Filtrate [13]: 4900.2 nmol/L | Liberation [13]: 847.8 nmol/L | 1st Wash [14]: 627.7 nmol/L | 2nd Wash [14]: 200.9 nmol/L | Filtrate [14]: 5661.6 nmol/L | Liberation [14]: 538.8 nmol/L | 1st Wash [15]: 631.3 nmol/L | 2nd Wash [15]: 112.3 nmol/L | Filtrate [15]: 4921.4 nmol/L | Liberation [15]: 154.4 nmol/L
